Source: patent publication US5512479A, “Method of degrading volatile organochlorides and remediation thereof” (priority 1993, dated 1996)

Tests used:
[1] = tested on: toluene monooxygenase (TMO); experiment: TCE induced TMO activity with different growth substrates (14C-toluene assay); assay type: cell-based, Pseudomonas mendocina KR-1; details: 40 μM TCE; for induced TMO activity increase (FIG. 4): growth substrate run, 6 hour period; for factor of TMO activity increase after addition of the substrate (FIG. 4): 3 g/L glutamate, 2 g/L glucose, or 20 mM lactate added after 2.75 hours
Description: (§1) Radioactivity in the bottles was enumerated by placing the bottles in a liquid scintillation counter. Results were recorded as disintegrations per minute (DPM). […] Non-volatile products were not evaporated from the silica gel during the drying phase, and were enumerated by scintillation counting. Thus, the greater the DPMs, the greater the TMO activity.
(§2) The effect of three growth substrates on TCE induced TMO activity was also established through a series of four runs. Cells were grown overnight as previously described for non-inducing growth: 30° C., 100 RPM, 50 mL cells in 125 mL flask in BSM with either 3 g/L sodium glutamate, 20 mM lactate, or 2 g/L glucose. The cultures were then washed and suspended to an O.D.550 =1.0 in BSM plus 0.3 g/L glutamate, 2.0 mM lactate, and 0.2 g/L glucose, respectively. TCE was then added to a final concentration of 40 μM, vials were sealed, and shaken at 30° C. […] At timed intervals, 10 μL of the air above the reaction mixture was removed from the vials by using a gas-tight syringe, and injected onto a gas chromatograph (Varian 3400; Star Data System) equipped with a 30M VOCOL column (Supelco Inc.: c0.53 mm ID, […] film, helium carrier at 7 mL/min, 100° C. isothermal, injector at 225° C.) and an electron capture detector (GC-ECD; 300° C.) to quantify the TCE remaining in the vial. Relative TCE concentration was enumerated as area counts, greater area counts representing greater amounts of TCE remaining in the vials. Five cell suspensions as described above were supplemented with 1 μM, 10 μM, 20 μM, 40 μM and 80 μM of TCE. A control run not shown in FIG. 3, and performed in the same manner as the other five runs, contained only DMF. Cell suspensions were incubated at 30° C. with shaking, and TMO activity, as described above with respect to Example 1, was determined at timed intervals.

[2] = tested on: toluene monooxygenase (TMO); assay type: cell-based, Pseudomonas mendocina KR-1; details: for TMO Activity (DPM): cells grown 48 hr on growth substrate (Table 1); for % Activity: relative to toluene-grown cells (Table 1)
Description: as §1
(§3) To determine the ability of alkanes to assist in the induction of TMO activity in P. mendocina KR-1 and to subsequently degrade TCE, the organism was grown in basal salts medium with hexane, octane and pentane as sole carbon and energy sources.
Cells were grown for 48 hr, washed with BSM, then suspended to an OD550 of 1.0 in BSM. Cells were incubated for 1 hr to allow removal of most residual alkane. They were then subjected to TMO and TCE assays.

[3] = tested on: toluene monooxygenase (TMO); assay type: cell-based, Pseudomonas mendocina KR-1; details: for induction of TMO, in words: substrate added to glutamate-grown cells
Description: as §1
A TMO assay was performed on the cells. Then 5 ml of the culture was added to each of four 50 mL serum vials. […] The vials were incubated at 30° C. and sampled, by using a glass syringe, at 1.5 hr and 2.5 hr after substrate addition.

[4] = tested on: Pseudomonas mendocina KR-1; experiment: TCE degradation (TCE bottle assay, gas chromatography); assay type: cell-based
Description: as §2
as §3, with “sources. TMO activity was determined by using the ^14 C-toluene assay and TCE degradation was measured by using a TCE bottle assay, both as described previously.” for “sources.”
Finally, alkane grown cells were analyzed for their ability to degrade TCE by using the TCE bottle assay and cells suspended in BSM to OD550 =2.0. […] Loss of TCE in the control (glucose) sample is thought to be due to induction of TMO by TCE.

[5] = tested on: toluene monooxygenase (TMO); experiment: TMO activity induced by TCE (14C-toluene assay); assay type: cell-based, Pseudomonas mendocina KR-1
Description: Cells were first grown overnight under non-inducing conditions. Specifically, cells were grown by suspending a small amount of cells from agar plate, or broth media, in a 125 mL flask containing 50 mL of basal salts medium (BSM) containing 3 g/L sodium glutamate with or without 0.1 g/L casamino acids (Difco). Cells were placed on a rotary shaker and shaken at 100 rpm and 30° C. for 16-24 hr. The cells were then centrifuged and washed with BSM. They were subsequently suspended in BSM and glutamate (3 g/L) to an optical density at 550 nm (OD550) of 1.0. Ten mL of cell suspension was added to a 50 mL serum vial, and 10 μL TCE (40 mM) dissolved in dimethylformamide (DMF) was added to a final concentration of 40 μM.
Comparison non-induced samples were prepared by adding only dimethylformamide (10 μL) to replicate 10 mL cell suspensions. The comparison samples contained no TCE. All sample vials were sealed with teflon-coated crimp seals and the cell suspensions were shaken at 25° C.
as §1
Another set of experiments containing five runs was performed to determine the preferred concentration of TCE used to induce the TMO genes in P. mendocina KR-1. TCE degradation was measured by suspending cells in BSM to an OD550 of 1.0. 10 mL of cells were added to 50 mL serum vials and 10 μL of TCE in dimethylformamide was added (final TCE concentration: 1-80 μM). Vials were sealed with teflon-lined crimp seals and shaken at 30° C. At timed intervals, 250 μl of sample was removed from each sample by using a syringe. The sample was mixed with 250 μl BSM to generate a final volume of 0.5 mL and OD550 of 0.5. ^14 C-Toluene assays were then performed on the samples as described previously.

[6] = tested on: Pseudomonas putida; details: only upon induction by toluene or phenol; cited from earlier work
[7] = tested on: Pseudomonas cepacia; details: cited from earlier work

Q: With N[C@@H](CCC(=O)[O-])C(=O)[O-].[Na+].[Na+] [Gultamate, sodium glutamate, reference compound] as the compound, how does the “induced TMO activity increase (FIG. 4)” value [1] read?
A: Its value is “up to 3,500 DPM”.

Q: What about the “factor of TMO activity increase after addition of the substrate (FIG. 4)” value [1] of the same compound?
A: The value was “at least 5”.

Q: What about the “TMO Activity (DPM)” value [2] of the same compound?
A: Its value is 123 DPM.

Q: What about the “% Activity” value [2] of the same compound?
A: Its value is 0.7%.

Q: Which results are given for CCCCCC [Hexanes]?
A: TMO Activity (DPM) [2]: 4889 DPM; % Activity [2]: 29%

Q: With CCCCCCCC [Octane] as the compound, how does the “TMO Activity (DPM)” value [2] read?
A: The value was 3915 DPM.

Q: And the “% Activity” value [2]?
A: Its value is 23%.

Q: For CCCCC [Pentane], which “TMO Activity (DPM)” value [2] is on record?
A: The value was 2079 DPM.

Q: What about the “% Activity” value [2] of the same compound?
A: Its value is 12%.

Q: And the “TMO Activity (DPM), T = 1.5 hr.” value ([3]; 1.5 hr after substrate addition, 30° C. (Table 2))?
A: Its value is 2480 DPM.

Q: What about the “TMO Activity (DPM), T = 2.5 hr.” value ([3]; 2.5 hr after substrate addition, 30° C. (Table 2)) of the same compound?
A: Its value is 1293 DPM.

Q: And the “TMO Activity (DPM), T = 0” value ([3]; T = 0, before substrate addition (Table 2))?
A: The value was 126 DPM.

Q: And the “TMO Activity (DPM), T = 1.5 hr., killed cells” value ([3]; killed (100 μl 1M HCl) + pentane, 1.5 hr (Table 2))?
A: The value was 128 DPM.

Q: What about the “TMO Activity (DPM), T = 2.5 hr., killed cells” value ([3]; killed (100 μl 1M HCl) + pentane, 2.5 hr (Table 2)) of the same compound?
A: Its value is 121 DPM.

Q: And the “TMO Activity (DPM), T = 0, killed cells” value ([3]; killed (100 μl 1M HCl) + pentane, T = 0 (Table 2))?
A: The value was 126 DPM.

Q: What about the “induction of TMO, in words” value [3] of the same compound?
A: The value was “induction of TMO by pentane”.

Q: For ClC=C(Cl)Cl [TCE, trichloroethylene], which “TMO induction by TCE in glutamate- and glucose-grown cells” value [1] is on record?
A: Its value is “rapid induction”.

Q: And the “percentage of TCE remaining (FIG. 6)” value ([4]; 6 hours, glucose (2 g/L) added after about 3 hours, 40 µM)?
A: The value was “about 10%”.

Q: What about the “loss of TCE in the control (glucose) sample (FIG. 7)” value ([4]; OD550 = 2.0, glucose-grown control) of the same compound?
A: Its value is “Loss of TCE”.

Q: What about the “TCE degradation (FIG. 6)” value ([4]; absent any additional inducing substrates) of the same compound?
A: Its value is “TCE degradation occurs simply by contacting Pseudomonas mendocina cells with TCE”.

Q: And the “TCE concentrations in response to TMO induction (FIG. 5)” value ([4]; sealed vials, 6 hours)?
A: Its value is “decreased in response to TMO induction”.

Q: And the “TMO activity (FIG. 3)” value ([5]; 1 μM TCE, 4 hour test period)?
A: Its value is “very little TMO activity was measured”.

Q: What about the “TMO activity (FIG. 3)” value ([5]; 10 μM or more of TCE, after the first half hour) of the same compound?
A: Its value is “increased dramatically after the first half hour”.

Q: What about the “induced TMO activity over 30 minutes (FIG. 1)” value ([5]; 40 μM TCE, 25° C., 30 minute period) of the same compound?
A: Its value is “increased dramatically over the 30 minute time period”.

Q: What about the “TMO activity (FIG. 2)” value ([5]; 40 μM TCE, first 75 minutes) of the same compound?
A: The value was “over 3,000 DPM”.

Q: What about the “further increase of TMO activity (FIG. 2)” value ([5]; 40 μM TCE, remaining 4 1/2 to 5 hours of six hour experiment) of the same compound?
A: Its value is “almost two fold”.

Q: What about the “rate of increase of TMO activity (FIG. 1)” value ([5]; 40 μM TCE, ten minute time interval) of the same compound?
A: Its value is “substantially two fold rate”.

Q: And the “induction of TMO activity (FIG. 3)” value ([5]; 10 and 20 μM TCE)?
A: Its value is “best results with respect to induction of TMO activity”.

Q: And the “induction of TMO activity (FIG. 3)” value ([5]; concentrations higher than 10 and 20 μM TCE)?
A: The value was “quite effective”.

Q: And the “TCE degradation by Pseudomonas putida PpF1 and B5” value [6]?
A: The value was “some ability to degrade TCE”.

Q: And the “TCE degradation by Pseudomonas cepacia G4” value ([7]; grown without an inducer)?
A: The value was “unable to degrade TCE”.

Q: And the “TCE degradation by Pseudomonas cepacia 5223-PR1” value ([7]; recombinant strain)?
A: The value was “did display the ability to degrade TCE”.

Q: With Cc1ccccc1 [Toluene, reference compound] as the compound, how does the “% Activity” value [2] read?
A: The value was 100%.

Q: What about the “induction of TMO, in words” value [3] of the same compound?
A: Its value is “only limited activity was observed”.

Q: Which results are given for CC(O)C(=O)O (stereo not shown) [lactate]?
A: TMO activity up to 2.75 hours (FIG. 4) ([1]; before addition of further substrate): little or no TMO activity; factor of TMO activity increase after addition of the substrate (FIG. 4) [1]: at least 5

Q: Which results are given for glucose?
A: induced TMO activity increase (FIG. 4) [1]: under 5,000 DPM; factor of TMO activity increase after addition of the substrate (FIG. 4) [1]: at least 5; effect of growth substrate on TCE degradation (FIG. 5) ([4]; 40 μM TCE, 6 hours): greatest effect on TCE degradation
